Experimental data as given in patent EP0312245A2, “Polycyclic compounds and pharmaceutical compositions thereof” (NORISTAN HOLDINGS LIMITED, priority 1987, dated 1989).
Where “and” joins values, the source holds several entries; their conditions need not be identical. Equal entries are not always repeated.

Columns and labels:
BD-9 rats (normatensive) = assay: Antihypertensive test: mean arterial pressure in normotensive BD-9 rats; assay type: in vivo, rat; design: mean arterial BP (individual rats): unit not given here; settings: 1mg/kg intravenous; for mean arterial BP (individual rats): rats 1-6, 1 mg/kg; for mean arterial BP, Av. / Average % change in mean arterial BP: standard error of the mean in brackets; for Average % change in mean arterial BP: versus pre-dose control
Method: (§1) The effect of Compound 3 on the mean arterial pressure was determined on spontaneously hypertensive rats (SHR ) by means of direct pressure transducing. Groups of 6 male rats of mass 210-300g were used. The average of ten pressure determinations was used. Normotensive (BD-9) rats were used as animal controls, while normal saline solution (containing some traces of polyethylene glycol and ethanol to aid in the solution of the test compounds) was used as solvent and as solvent control.
(§2) After verifying the mass of the animal, it was placed under general anaesthesia by administering 60mgikg pentobarbitone (Sagatal@) intraperitonially. The tracheal tube and carotid artery were both exposed by dissection. An intranule was introduced into the trachea as aid ventilation. The carolid artery was canalated and coupled to a pressure sensor. The sysolic, diastolic and mean arterial pressure were monitored via a Spacelab 514 patient monitor and registered on a Vitatek 551 plotter. During the experiment the exposed tissue of the rat was covered with guaze and kept damp with normal saline.
(§3) The drugs and solvent controls were administered intravenously into the dorsal penile vein after stabilization of the blood pressure (BP) had occurred. After drug administration, the BP was recorded every 5 minutes for a period of 30 min.

[1] = test system: spontaneously hypertensive rats (SHR ); assay: Antihypertensive test: mean arterial pressure in spontaneously hypertensive rats; assay type: in vivo, rat; design: mean arterial BP (individual rats): unit not given here; settings: SHR, 1mg/kg intravenous; for mean arterial BP (individual rats): rats 1-6, 1 mg/kg; for mean arterial BP, Av. / Average % change in mean arterial BP: standard error of the mean in brackets; for Average % change in mean arterial BP: versus pre-dose control
Method: as §1, §2, §3

[2] = test system: isolated rabbit ear preparation; assay: Rabbit ear perfusion test (adrenaline-induced tone, perfusion pressure); settings: Oryctolagus cuniculus, Table 6, read-out: Corrected mean % change in perfusion pressurre
Method: Female New Zealand White rabbits (approximately 4kg) were anaesthetised with Sagatal ® (0.5ml/kg).
The central ear artery was cannulated using a 20 G catheter and the ear cut off at its base. Heparinised (5ml, 200 IU;ml) Krebs bicarbonate solution was perfused through the ear to expel the blood. The ear was placed in a warming jacket at 37°C and attached via the arterial catheter to the perfusion pump. Perfusion of the ear with aerated (95% 025% C02)Krebs bicarbonate solution at 37° C was commenced at a rate of 6.5ml/min using a Watson Marlow peristaltic pump. The perfusion pressure was monitored continuously using a pressure transducer (Type 4-327-1221, Consoliated Electrodynamics) coupled to a Devices Recorder.
Following an equilibration period of 15 minutes, increased tone was induced in the preparation by addition of adrenaline (1µg/ml) to the perfusion fluid.
After a stable tone was observed, various concentrations of test compounds were injected into the perfusion fluid and examined for their effect on the perfusion pressure. The effect of vehicle (0.2ml, 50% Krebs 50% ethanol) was also tested on the ear preparation.

## COC(=O)C1=C(C)NC(C)=C(C(=O)OC)C1c1ccccc1[N+](=O)[O-] [Nifedipine]
BD-9 rats (normatensive); 5 min
  mean arterial BP (individual rats): 67 and 59 (2×) and 80 and 74 and 60
  mean arterial BP, Av.: 67(4)
  Average % change in mean arterial BP: 38(5.5) %
BD-9 rats (normatensive); 10 min
  mean arterial BP (individual rats): 65 and 67 (2×) and 74 and 69 and 66
  mean arterial BP, Av.: 68(1)
  Average % change in mean arterial BP: 37(4.4) %
BD-9 rats (normatensive); 15 min
  mean arterial BP (individual rats): 68 and 66 (2×) and 65 and 74 and 63
  mean arterial BP, Av.: 67(2)
  Average % change in mean arterial BP: 38(3.8) %
BD-9 rats (normatensive); 20 min
  mean arterial BP (individual rats): 67 and 60 and 62 and 77 and 65 and 64
  mean arterial BP, Av.: 66(2)
  Average % change in mean arterial BP: 39(3.1) %
BD-9 rats (normatensive); 25 min
  mean arterial BP (individual rats): 63 (2×) and 55 and 62 and 80 and 67
  mean arterial BP, Av.: 65(3)
  Average % change in mean arterial BP: 40(2.8) %
BD-9 rats (normatensive); 30 min
  mean arterial BP (individual rats): 61 and 57 and 63 and 79 and 60 and 62
  mean arterial BP, Av.: 64(3)
  Average % change in mean arterial BP: 41(3.4) %
[1]; 5 min
  mean arterial BP (individual rats): 105 and 67 and 88 and 85 and 80 and 74
  mean arterial BP, Av.: 83(5)
  Average % change in mean arterial BP: 44(5.4) %
[1]; 10 min
  mean arterial BP (individual rats): 96 and 64 and 104 and 88 and 81 and 74
  mean arterial BP, Av.: 85(6)
  Average % change in mean arterial BP: 43(6.0) %
[1]; 15 min
  mean arterial BP (individual rats): 95 and 68 and 107 and 93 and 84 and 77
  mean arterial BP, Av.: 87(6)
  Average % change in mean arterial BP: 41(5.8) %
[1]; 20 min
  mean arterial BP (individual rats): 93 and 69 and 92 and 100 and 83 and 80
  mean arterial BP, Av.: 86(5)
  Average % change in mean arterial BP: 42(4.2) %
[1]; 25 min
  mean arterial BP (individual rats): 95 and 71 and 93 and 106 and 79 and 84
  mean arterial BP, Av.: 88(5)
  Average % change in mean arterial BP: 41(4.4) %
[1]; 30 min
  mean arterial BP (individual rats): 95 and 73 and 93 and 110 and 81 and 85
  mean arterial BP, Av.: 90(5)
  Average % change in mean arterial BP: 40(4.3) %
[2]; dose 10 μg
  inhibition at 0.01 mg: 4%
[2]; dose 31.6 μg
  inhibition at 0.0316 mg: 0.5%
[2]; dose 100 μg
  inhibition at 0.1 mg: 9.5%
[2]; dose 316 μg
  inhibition at 0.316 mg: -26%
[2]; dose 1000 μg
  inhibition at 1 mg: 39.5%
